Results from patent US5597899A, “Tumor necrosis factor muteins” (Hoffmann-La Roche Inc., priority 1993, dated 1997).

Legend:
human TNFR-p55 = test: Solid phase radioligand competition binding assay, E. coli lysates, TNFR-p55; details: for Dilution of E. coli Lysate for 50% Inhibition of 125I-TNFα Binding (ID50) TNFR-p55: 10-fold serial dilutions 10^-2 to 10^-7, < = inhibition but below 50% at 1:100, << = no measurable inhibition at 1:100; for ID50 TNFR-p55 / ID50 TNFR-p75: ratio = 1 no receptor selectivity, > 1 TNFR-p55 selectivity, < 1 TNFR-p75 selectivity
Description: (§1) After 20 min incubation at room temperature 50 μl of 1M MgCl2, 20 μl of 5 mg/ml DNaseI, 50 μl of 5M NaCl and 50 μl of 10% NP-40 were added and the mixture was further incubated at room temperature for 15 min. 0.5 ml of the lysate clarified by centrifugation at 13'000 rpm for 5 min was subjected to ammonium sulfate precipitation (25%-70% cut). The 70% ammonium sulfat pellet was dissolved in 0.2 ml PBS and analyzed by sodium dodecyl sulfate polyacrylamide gel electrophoresis (SDS-PAGE) to confirm presence and approximate amount of the recombinant proteins.
TNFα was labelled by the Iodogen method (Pierce Chemical Company) to a specific activity of about 10-30 μCi/μg. The volume was 100 μl/well and each lysate dilution was assayed in duplicate or triplicate. After three hours at room temperature the wells were thoroughly washed with PBS and counted in a γ-counter. The results are given in Table 2 for lysates comprising the muteins indicated therein.

human TNFR-p75 = test: Solid phase radioligand competition binding assay, E. coli lysates, TNFR-p75; details: 10-fold serial dilutions 10^-2 to 10^-7, < = inhibition but below 50% at 1:100, << = no measurable inhibition at 1:100
Description: as §1, with “10 ml suspensions of E. coli cells transformed and induced as described in Examples I and II were centrifuged at 4'000 rpm for 10 min and resuspended in 0.9 ml of lysis buffer (10 mM Tris-HCl pH 8.0, 5 mM EDTA, 2 mM PMSF, 10 mM benzamidine, 200 units/ml aprotinine and 0.1 mg/ml lysozyme). After” for “After”
96 well microtiter plates were coated with recombinant human […] TNFR-p75-hγ3 and TNFR-p55-hγ3 fusion proteins (extracellular portion of the receptor fused to the Fc part of human IgG3) at a concentration of 0.3 μg/ml and 0.1 μg/ml, respectively, in phosphate buffered saline (PBS, 100 μl/well, overnight at 4° C.) [Loetscher, H. et al. J. Biol. Chem. 266, 18324-18329 (1991); Lesslauer, W. et al. Eur. J. Immunol. 21, 2883-2886 (1991)]. After blocking with blocking buffer (50 mM Tris pH 7.4, 140 mM NaCl, 5 mM EDTA, 0.02% NAN3, 1% defatted milk powder) the microtiter plate was washed with PBS and incubated in blocking buffer containing 0.1% defatted milk powder with 10 ng/ml human wild-type ^125 I-TNFα and various dilutions of E. coli lysates ranging from 10^-2 to 10^-7 (10-fold serial dilutions). TNFα was labelled by the Iodogen method (Pierce Chemical Company) to a specific activity of about 10-30 μCi/μg. The volume was 100 μl/well and each lysate dilution was assayed in duplicate or triplicate. After three hours at room temperature the wells were thoroughly washed with PBS and counted in a γ-counter. The results are given in Table 2 for lysates comprising the muteins indicated therein.

Row | Substance | Dilution of E. coli Lysate for 50% Inhibition of 125I-TNFα Binding (ID50) TNFR-p55 (human TNFR-p55) | ID50 TNFR-p55 / ID50 TNFR-p75 (human TNFR-p55) | Dilution of E. coli Lysate for 50% Inhibition of 125I-TNFα Binding (ID50) TNFR-p75 (human TNFR-p75)
1 | R31N-R32T: human TNFα mutein R31N-R32T | 3,260 fold | > 32.6 | < 100 fold
2 | A33T: human TNFα mutein A33T | 1,110 fold | 0.9 | 1,250 fold
3 | N34Q: human TNFα mutein N34Q | < 100 fold | > 1 | < 100 fold
4 | N34Y: human TNFα mutein N34Y, listed twice (codons TAT and TAC) | < 100 fold | > 1 | < 100 fold
5 | F144G: human TNFα mutein F144G | 2,500 fold | 1.2 | 2,000 fold
6 | Y87L: human TNFα mutein Y87L | < 100 fold | 1 | < 100 fold
7 | N92R: human TNFα mutein N92R | 5,000 fold | 4 | 1,250 fold
8 | N34E: human TNFα mutein N34E | 330 fold | > 3.3 | < 100 fold
9 | L75R: human TNFα mutein L75R | < 100 fold | 1 | < 100 fold
10 | Q67K: human TNFα mutein Q67K | 25,000 fold | 0.5 | 50,000 fold
11 | Q21S: human TNFα mutein Q21S | 2,500 fold | 1 | 2,500 fold
12 | S147L: human TNFα mutein S147L | 2,000 fold | 0.6 | 3,330 fold
13 | Q67Y: human TNFα mutein Q67Y | 20,000 fold | 0.6 | 33,330 fold
14 | N30T: human TNFα mutein N30T | 2,860 fold | 1.1 | 2,500 fold
15 | S147N: human TNFα mutein S147N | 10,000 fold | 1 | 10,000 fold
16 | S86D: human TNFα mutein S86D | 6,670 fold | 6.7 | 1,000 fold
17 | Y87T: human TNFα mutein Y87T | < 100 fold | 1 | < 100 fold
18 | Y87Q: human TNFα mutein Y87Q | < 100 fold | 1 | < 100 fold
19 | F144R: human TNFα mutein F144R | 2,500 fold | 7.6 | 330 fold
20 | R31E: human TNFα mutein R31E | 3,470 fold | 19.3 | 180 fold
21 | I97K: human TNFα mutein I97K | 143 fold | > 1.4 | < 100 fold
22 | Y87G: human TNFα mutein Y87G | < 100 fold | 1 | < 100 fold
23 | L75H: human TNFα mutein L75H | 1,670 fold | 0.7 | 2,500 fold
24 | D143F: human TNFα mutein D143F | < 100 fold | < 0.4 | 250 fold
25 | N34R: human TNFα mutein N34R | < 100 fold | > 1 | < 100 fold
26 | A145S: human TNFα mutein A145S | 14,290 fold | 0.6 | 25,000 fold
27 | A145Y: human TNFα mutein A145Y | 1,670 fold | 0.1 | 11,110 fold
28 | D143V: human TNFα mutein D143V | < 100 fold | < 1 | < 100 fold
29 | D143W: human TNFα mutein D143W | < 100 fold | < 1 | 100 fold
30 | A145D: human TNFα mutein A145D | 5,000 fold | 0.7 | 6,670 fold
